We go through three compounds from patent publication US8772318B2, “Methods and compositions related to targeting monoacylglycerol lipase” (The Scripps Research Institute, priority 2008, dated 2014).

One series concerns the target T1, FAAH (Mus musculus, UniProt O08914).
T1 construct: from tissue; host or cells: mouse brain membrane fraction
T1 sequence (O08914 1-579): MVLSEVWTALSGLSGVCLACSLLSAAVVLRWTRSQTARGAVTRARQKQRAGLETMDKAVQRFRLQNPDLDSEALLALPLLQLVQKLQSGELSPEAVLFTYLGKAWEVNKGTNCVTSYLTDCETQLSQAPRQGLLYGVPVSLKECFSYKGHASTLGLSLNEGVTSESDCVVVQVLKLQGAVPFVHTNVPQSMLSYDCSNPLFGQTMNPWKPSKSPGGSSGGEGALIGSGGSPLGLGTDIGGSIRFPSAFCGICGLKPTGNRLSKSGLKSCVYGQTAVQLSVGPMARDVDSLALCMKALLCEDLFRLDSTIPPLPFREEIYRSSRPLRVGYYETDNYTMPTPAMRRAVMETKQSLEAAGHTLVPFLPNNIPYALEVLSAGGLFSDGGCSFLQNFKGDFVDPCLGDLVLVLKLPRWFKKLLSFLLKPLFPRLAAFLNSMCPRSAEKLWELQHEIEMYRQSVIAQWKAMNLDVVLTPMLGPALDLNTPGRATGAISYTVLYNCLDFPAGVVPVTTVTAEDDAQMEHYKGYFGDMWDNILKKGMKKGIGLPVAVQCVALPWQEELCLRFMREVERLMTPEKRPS
Description: Competitive ABPP, mouse brain membrane proteome. It counts as biochemical. An excerpt: (§1) First, serine hydrolases are susceptible to covalent inactivation by specific chemical groups that show little or no cross-reactivity with other enzyme classes. […] Second, the functional state of serine hydrolases can be collectively profiled in native biological systems using activity-based protein profiling (ABPP) methods (Cravat et al., Annu Rev Biochem 77:383-414, 2008). ABPP of serine hydrolases uses reporter-tagged fluorophosphonates (FPs), which serve as general activity-based probes for this large and diverse enzyme class (Liu et al., Proc. Natl. Acad. Sci. U.S.A. 96:14694-9, 1999). When performed in a competitive mode, ABPP can serve as a powerful screen to evaluate the potency and selectivity of small-molecule enzyme inhibitors directly in complex proteomes. The screen can be performed as described in the art, e.g., Liu et al., Proc. Natl. Acad. Sci. U.S.A. 96:14694-9, 1999; Li et al., J. Am. Chem. Soc. 129:9594-5, 2007; Leung et al., Nat. Biotech. 21:687-91, 2003; and Greenbaum et al., Mol. Cell. Proteomics 1:60-68, 2002.
(§2) Competitive activity-based protein profiling (ABPP) experiments. In vitro inhibitor selectivity was examined using a competitive ABPP method as described in the art (e.g., Li et al., J. Am. Chem. Soc. 129:9594-5, 2007; and Leung et al., Nat. Biotech. 21:687-91, 2003). Briefly, mouse brain membrane proteomes, prepared as described herein, were diluted to 1 mg/ml in PBS and pre-incubated with varying concentrations of inhibitors (1 nM to 10 μM) for 30 min at 37° C. prior to the addition of a FP-rhodamine at a final concentration of 2 μM in a 50 μl of total reaction volume. After 30 min at room temperature, the reactions were quenched with 4×SDS-PAGE loading buffer, boiled for 5 min at 90° C., subjected to SDS-PAGE, and visualized in-gel using a flatbed fluorescence scanner.
(§3) Every 10 min, 50 ul of the reaction was removed and treated with FP-rhodamine (2 μM) for 2 min, quenched with 4×SDS-PAGE loading buffer, and boiled for 5 min at 90° C. The combined reactions were subjected to SDS-PAGE and visualized in-gel using a flatbed fluorescence scanner. The percentage activity remaining was determined by measuring the integrated optical density corresponding to the MAGL or FAAH bands and the results were fit to an exponential curve to determine the pseudo-first order rate constants.

The target in another series is T2, ABHD6 (Mus musculus, UniProt Q8R2Y0).
T2 construct: from tissue; host or cells: mouse brain membrane fraction
T2 sequence (Q8R2Y0 1-336): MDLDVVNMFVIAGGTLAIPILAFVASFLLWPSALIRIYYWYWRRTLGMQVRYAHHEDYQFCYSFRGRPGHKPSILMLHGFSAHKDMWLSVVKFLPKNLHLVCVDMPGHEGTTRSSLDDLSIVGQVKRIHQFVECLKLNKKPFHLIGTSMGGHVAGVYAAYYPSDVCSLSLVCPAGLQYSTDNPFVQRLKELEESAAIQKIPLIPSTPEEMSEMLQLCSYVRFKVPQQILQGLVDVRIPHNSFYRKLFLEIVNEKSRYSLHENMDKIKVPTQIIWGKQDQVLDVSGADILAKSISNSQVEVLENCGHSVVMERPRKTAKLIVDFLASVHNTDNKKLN
Description: Competitive ABPP, mouse brain membrane proteome. Format: biochemical.
From the text: as §1, §2, §3

The target of series [1] is T3, MAGL (Mus musculus, UniProt O35678).
T3 construct: from tissue; host or cells: mouse brain membrane fraction (C57Bl/6 mice for the in vivo studies)
T3 sequence (O35678 1-303): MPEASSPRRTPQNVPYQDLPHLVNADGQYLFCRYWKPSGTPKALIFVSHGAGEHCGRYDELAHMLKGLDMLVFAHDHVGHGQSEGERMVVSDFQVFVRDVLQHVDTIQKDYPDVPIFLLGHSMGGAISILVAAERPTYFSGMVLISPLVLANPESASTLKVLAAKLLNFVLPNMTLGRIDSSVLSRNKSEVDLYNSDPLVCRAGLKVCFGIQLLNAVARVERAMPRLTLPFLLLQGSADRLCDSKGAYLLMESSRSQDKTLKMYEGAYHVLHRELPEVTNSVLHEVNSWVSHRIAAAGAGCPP
Nature of the series: Competitive ABPP, mouse brain membrane proteome. Format: biochemical.
From the text: as §1, §2, §3

In series [2] the target is T4, MAGL (Homo sapiens, UniProt Q99685).
T4 construct: endogenous in cells; host or cells: human cancer lines (C8161, MUM2B, MUM2C, SKOV3, OVCAR3, 231MFP, MCF7)
T4 sequence (Q99685 1-303): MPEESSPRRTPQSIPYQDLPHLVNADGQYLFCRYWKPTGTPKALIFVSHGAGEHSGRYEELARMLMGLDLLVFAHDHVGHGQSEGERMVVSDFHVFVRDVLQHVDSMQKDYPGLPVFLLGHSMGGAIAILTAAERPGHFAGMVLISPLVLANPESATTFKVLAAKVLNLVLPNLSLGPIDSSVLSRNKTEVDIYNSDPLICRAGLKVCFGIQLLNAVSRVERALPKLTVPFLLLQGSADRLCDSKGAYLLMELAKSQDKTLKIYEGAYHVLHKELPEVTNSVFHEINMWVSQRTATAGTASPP
Description: shRNA knockdown of MAGL, activity by ABPP and C20:4 MAG hydrolysis. It counts as cell-based. Conditions: aggressive cancer lines, ABPP. Here is the method: ABPP and hydrolytic activity assays of cancer cell proteomes. Identification and comparative quantitation of serine hydrolase activities from cancer cell proteomes by ABPP-MudPIT or gel-based ABPP was conducted as previously described using FP-biotin (5 μM) and FP-rhodamine (2 μM), respectively (Jessani et al., Proc. Natl. Acad. Sci. U.S.A 99:10335-10340, 2002; and Jessani et al., Nat. Methods 2:691-697, 2005). C20:4 MAG hydrolytic activity assays were performed as described previously (Blankman et al., Chem. Biol. 14:1347-1356, 2007). For ABPP experiments, cell lysate proteomes were treated with 2 μM FP-rhodamine for 30 min at room temperature (50 μl total reaction volume). Reactions were quenched with one volume of standard 4×SDS/PAGE loading buffer (reducing), separated by SDS/PAGE (10% acrylamide), and visualized in-gel with a Hitachi FMBio IIe flatbed fluorescence scanner (MiraiBio). Integrated band intensities were calculated for the labeled proteins and averaged from three independent cell samples to determine the level of each enzyme activity. IC50 values were determined from dose-response curves from three trials at each inhibitor concentration by using SigmaPlot 10.0. MAGL expression was also assessed by western blotting using standard procedures.
RNA interference studies in human cancer cell lines. […]

Series [3] has as its system human cancer cell lines (C8161, SKOV3, 231MFP, MUM2C, OVCAR3). Description: Lipid measurements in cancer cells. It counts as cell-based. To be noted: aggressive melanoma, ovarian, breast cancer cells. The procedure: Pharmacological inhibition of MAGL in cancer cells. Pharmacological inhibition studies were conducted as described previously (Chiang et al., Chem. Biol. 13:1041-1050, 2006). Cancer cells were maintained in RPMI medium 1640 with 10% (v/v) fetal calf serum at 37° C. in a humidified atmosphere of 5% CO2/95% air. At 80% confluency, cells were trypsinized and counted using a hemocytometer, and 1×10^6 cells were plated in 6 cm dishes (subconfluent). […] After incubation for 4 hr, the cells were harvested and analyzed by ABPP or LC-MS.
Lipid measurements in cancer cells. Lipid measurements were conducted similarly to protocols described previously (Chiang et al., 2006; supra). Cancer cells were grown in serum-free media for 4 hrs to minimize the contribution of serum-derived lipids to the cellular profiles. The cells (1×10^6 cells/6 cm dish, 80% confluency) were washed with twice with phosphate buffer saline (PBS), isolated by centrifugation at 1,400×g, and dounce-homogenized in 4 ml of a 2:1:1 mixture of chloroform:methanol:Tris buffer. Samples were homogenized in the presence of the following synthetic standards: C12:0 MAGE (10 nmol), C15:0 FFA (10 nmol). Organic and aqueous layers were separated by centrifugation at 2000×g for 5 min and the organic layer was collected. The aqueous layer was acidified (for metabolites such as LPA) by adding 5% formic acid, followed by the addition of 2 ml chloroform. The mixture was vortexed, and the organic layers were combined, dried down under N2 and dissolved in 100 μl chloroform, of which 30 μl was analyzed by LC-MS.
LC-MS analysis was performed by using an Agilent 1100 LC-MSD SL instrument. […] Mobile phase A was composed of a 95:5 ratio of water:methanol, and mobile phase B consisted of 2-propanol, methanol, and water in a 60:35:5 ratio. Solvent modifiers such as 0.1% formic acid and 0.1% ammonium hydroxide were used to assist ion formation as well as to improve the LC resolution in both positive and negative ionization modes, respectively. The flow rate for each run started at 0.1 ml/min for 5 min, to alleviate backpressure associated with injecting chloroform. The gradient started at 0% B and increased linearly to 100% B over the course of 45 min with a flow rate of 0.4 ml/min, followed by an isocratic gradient of 100% B for 17 min at 0.5 ml/min before equilibrating for 8 min at 0% B with a flow rate of 0.5 ml/min. MS analysis was performed with an electrospray ionization (ESI) source. The capillary voltage was set to 3.0 kV, and the fragmentor voltage was set to 100 V. The drying gas temperature was 350° C., the drying gas flow rate was 10 L/min, and the nebulizer pressure was 35 psi.
Lipidomic analysis was performed in both targeted and untargeted mode by LC-MS analysis. Standard lipid classes were quantitated by targeting using selected ion monitoring (SIM) (except for very high-abundance metabolites which were quantitated by untargeted analysis) and identities of metabolites were confirmed by coelution of metabolites with their respective standards and mass accuracy to within 10 ppm as determined with an accurate mass Agilent 6520 Accurate Mass QTOF-MS-MS. These lipids were quantified by measuring the area under the peak and were normalized to an internal standard (C12:0 MAGE in positive mode or C15:0 FFA in negative mode). […]

Consider `O=C(Oc1ccc([N+](=O)[O-])cc1)N1CCN(C(c2ccc(F)cc2)c2ccc(F)cc2)CC1` [WWL162], for which, on FAAH, the “effect on FAAH in competitive ABPP screen (FIG. 1B)” value is listed as “greatly reducing activity”. The “effect on ABHD6 in competitive ABPP screen (FIG. 1B)” value at ABHD6 was “preserve potency”. Moreover, the “effect on MAGL in competitive ABPP screen (FIG. 1B)” value on MAGL [1] is “preserve potency”.
As for “shMAGL1: short hairpin RNA oligonucleotide for MAGL, 5′-CAACTTTCAAGGTCCTTGC-3′ (SEQ ID NO:1) (expressed or natural sequence)”, the “other serine hydrolase activities” value in the series with MAGL [2] is “unaffected”. In series [3], the “FFA levels in shMAGL cells” value is listed as “corresponding reductions” and the “MAG levels in shMAGL cells” value was “significant elevations”.
The like results for “shMAGL2: short hairpin RNA oligonucleotide for MAGL, 5′-AGACTACCCTGGGCTTCCT-3′ (SEQ ID NO:2) (expressed or natural sequence)” were, in that order, “unaffected”, “corresponding reductions” and “significant elevations”.
